Results: ChEMBL document CHEMBL4428025 (J Med Chem, 2016)

What was measured:
[1] = Oral bioavailability in cynomolgus monkey at 0.3 mg/kg; assay type: ADME, organism-based, Macaca fascicularis; details: in vivo
[2] = Oral bioavailability in Wistar rat at 0.3 mg/kg; assay type: ADME, organism-based; details: in vivo
[3] = Ratio of drug level in brain to plasma in CD rat at 10 to 70 mg/kg, po administered through gavage measured at 6 hrs; assay type: ADME, organism-based; details: read-out: BPR

SMILES | bioavailability [1] [%] | bioavailability [2] [%] | Kp at 6 h [3]
O=C1NCN(c2ccccc2)C12CCN([C@@H]1CC[C@H]3CCCc4cccc1c43)CC2 | 1 | 4 | –
NC(=O)C1(c2ccccc2)CC2CCC(C1)N2C(c1ccccc1Cl)c1ccccc1Cl (stereo not drawn) | – | – | 0.43 to 0.59
